The values that follow come from PubChem BioAssay AID330 (DTP/NCI, 2004).

The experiment deals with P388 leukemia ip, CD2F1 mice, survival T/C. The experiment in a line: NCI In Vivo Anticancer Drug Screen. Data for tumor model P388 Leukemia (intraperitoneal) in CD2F1 (CDF1) mice. The settings on record: endpoint: median survival time, higher = longer survival. The procedure, abridged: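 Mice carrying the transplanted tumor received test compound or vehicle. Survival was recorded in each group, and the value is the treated-group measurement divided by that of the vehicle-treated control group.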

The mark [1] stands for this setting: dose: 100.0 mg/kg/injection, schedule: Q01DX009 (ip), vehicle: saline with Tween-80.
The mark [2] stands for this setting: dose: 200.0 mg/kg/injection, schedule: Q01DX009 (ip), vehicle: saline with Tween-80.
The mark [3] stands for this setting: dose: 50.0 mg/kg/injection, schedule: Q01DX005 (ip), vehicle: saline with Tween-80.
[4] abbreviates: dose: 100.0 mg/kg/injection, schedule: Q01DX005 (ip), vehicle: saline with Tween-80.
Where [5] appears, read: dose: 200.0 mg/kg/injection, schedule: Q01DX005 (ip), vehicle: saline with Tween-80.
Setting [6] is: dose: 50.0 mg/kg/injection, schedule: Q01DX009 (ip), vehicle: Klucel (hydroxypropylcellulose) (HPC).
Setting [7] is: dose: 100.0 mg/kg/injection, schedule: Q01DX009 (ip), vehicle: Klucel (hydroxypropylcellulose) (HPC).
[8] abbreviates: dose: 200.0 mg/kg/injection, schedule: Q01DX009 (ip), vehicle: Klucel (hydroxypropylcellulose) (HPC).
[9] abbreviates: dose: 60.0 mg/kg/injection, schedule: Q01DX005 (ip), vehicle: saline with Tween-80.
Where [10] appears, read: dose: 120.0 mg/kg/injection, schedule: Q01DX005 (ip), vehicle: saline with Tween-80.
Setting [11] is: dose: 240.0 mg/kg/injection, schedule: Q01DX005 (ip), vehicle: saline with Tween-80.
Setting [12] is: dose: 100.0 mg/kg/injection, schedule: Q01DX001 (ip), vehicle: Klucel (hydroxypropylcellulose) (HPC).
[13] abbreviates: dose: 200.0 mg/kg/injection, schedule: Q01DX001 (ip), vehicle: Klucel (hydroxypropylcellulose) (HPC).
[14] abbreviates: dose: 400.0 mg/kg/injection, schedule: Q01DX001 (ip), vehicle: Klucel (hydroxypropylcellulose) (HPC).
Where [15] appears, read: dose: 50.0 mg/kg/injection, schedule: Q01DX005 (ip), vehicle: Klucel (hydroxypropylcellulose) (HPC).

Molecules are shown by their SMILES. Values joined by “and” are separate entries in the source; they are usually repeats but may differ in a detail not shown here. Equal entries are not always repeated. Toxic doses and inconclusive results are not listed.

For the molecule `CC1/C(=N\Nc2ccc([N+](=O)[O-])cc2)CC2C3(C)CCC2(C(C)C(=O)O)C(=O)C13` (configuration not stated), the T/C was 93 % of control (dose: 100.0 mg/kg/injection, schedule: Q04DX003 (ip), vehicle: saline); 93 % of control (dose: 200.0 mg/kg/injection, schedule: Q04DX003 (ip), vehicle: saline); 95 % of control (dose: 400.0 mg/kg/injection, schedule: Q04DX003 (ip), vehicle: saline).
In the case of `CN1C2=C(C#N)C(=C(C#N)C#N)NC2C(C)(C)c2ccccc21` (configuration not stated), the T/C reads like this: (dose: 50.0 mg/kg/injection, schedule: Q01DX009 (ip), vehicle: saline with Tween-80) 96 % of control; under setting [1], 88 % of control; under setting [2], 92 % of control.
Take `CC(=O)NCN(C)[N+](=O)[O-]`: the T/C is, setting by setting: (dose: 60.0 mg/kg/injection, schedule: Q01DX005 (ip), vehicle: saline) 115 % of control; (dose: 120.0 mg/kg/injection, schedule: Q01DX005 (ip), vehicle: saline) 97 % of control; (dose: 240.0 mg/kg/injection, schedule: Q01DX005 (ip), vehicle: saline) 108 % of control.
In the case of `Cn1nc2c(cc1=O)Cc1ccccc1-2`, the T/C under setting [3] was 103 % of control, the T/C under setting [4] was 98 % of control and the T/C under setting [5] is 101 % of control.
With `O=C1C(=C2CCCC2)CC/C1=C1/SS/C(=C2/CCC(=C3CCCC3)C2=O)S1`, the T/C by setting is: under setting [6], 99 % of control; under setting [7], 101 % of control; under setting [8], 100 % of control.
In the case of `CCN(CC)CC.[CH-]1CCCCC1.[CH-]1CCCCC1.[CH3-].[Cl-].[Cl-].[Sn+4]`, the T/C is 107 % of control (dose: 6.0 mg/kg/injection, schedule: Q01DX005 (ip), vehicle: saline) and 96 % of control (dose: 12.0 mg/kg/injection, schedule: Q01DX005 (ip), vehicle: saline).
`CC(=O)Nc1ccc(-c2csc(Nc3ccnc4cc(Cl)ccc34)n2)cc1`: the T/C is, setting by setting: under setting [3], 93 % of control and 95 % of control; under setting [4], 92 % of control; under setting [5], 90 % of control and 92 % of control.
Take `CCOC(=O)c1ccc(-n2c(C)nc3ccc(Br)cc3c2=O)cc1`: the T/C runs as follows: under setting [9], 98 % of control; under setting [10], 95 % of control; under setting [11], 100 % of control.
With `C[n+]1ccc(Nc2ccc(NC(=O)c3ccc(Nc4cc[n+](C)c5ccc([N+](=O)[O-])cc45)cc3)cc2)cc1`, the T/C was 164 % of control (dose: 2.0 mg/kg/injection, schedule: Q01DX009 (ip), vehicle: saline); 158 % of control and 178 % of control (dose: 4.0 mg/kg/injection, schedule: Q01DX009 (ip), vehicle: saline); 177 % of control and 195 % of control (dose: 8.0 mg/kg/injection, schedule: Q01DX009 (ip), vehicle: saline); 226 % of control and 257 % of control (dose: 16.0 mg/kg/injection, schedule: Q01DX009 (ip), vehicle: saline); 281 % of control and 288 % of control (dose: 32.0 mg/kg/injection, schedule: Q01DX009 (ip), vehicle: saline); 121 % of control (dose: 64.0 mg/kg/injection, schedule: Q01DX009 (ip), vehicle: saline).
`CC[Se](CC)CC.CC[Se](CC)CC.C[CH2][Ge]([CH2]C)[O][Ge]([CH2]C)[CH2]C`: the T/C was 99 % of control and 95 % of control (dose: 3.12 mg/kg/injection, schedule: Q01DX009 (ip), vehicle: saline); 96 % of control (2×) and 97 % of control (dose: 6.25 mg/kg/injection, schedule: Q01DX009 (ip), vehicle: saline); 101 % of control and 107 % of control and 96 % of control (dose: 12.5 mg/kg/injection, schedule: Q01DX009 (ip), vehicle: saline); 117 % of control and 118 % of control (dose: 25.0 mg/kg/injection, schedule: Q01DX009 (ip), vehicle: saline).
`O=C1CCC(N2CCCCC2)CCC1(c1ccccc1)c1ccccc1` (configuration not stated): the T/C reads like this: under setting [3], 106 % of control; under setting [4], 103 % of control; under setting [5], 96 % of control.
Take `CC1(C)/C(=C/c2ccccc2)C(=O)c2ccccc21`: the T/C under setting [1] is 90 % of control; the T/C under setting [2] was 100 % of control; the T/C (dose: 400.0 mg/kg/injection, schedule: Q01DX009 (ip), vehicle: saline with Tween-80) is 100 % of control.
Regarding `O=C1OCCSCCOCCSCCOC(=O)c2cncc1c2`, the T/C is 99 % of control under setting [12], 113 % of control under setting [13] and 109 % of control under setting [14].
For the molecule `CC(=O)NS(=O)(=O)c1ccc(N=Nc2c(C)nn(C(=O)c3cccnc3)c2-c2ccccc2)cc1`, the T/C is 87 % of control under setting [3] and 89 % of control under setting [4].
With `Cc1cc2nnc(-c3cccc([N+](=O)[O-])c3)n2c2nnnn12`, the T/C by setting is: (dose: 25.0 mg/kg/injection, schedule: Q01DX005 (ip), vehicle: saline with Tween-80) 100 % of control; under setting [3], 102 % of control; under setting [4], 98 % of control; under setting [5], 100 % of control.
With `O=C(NC(Cc1ccccc1)C(=O)O)C(=O)c1c[nH]c2ccc(Cl)cc12` (configuration not stated), the T/C was 100 % of control under setting [9], 96 % of control under setting [10] and 94 % of control under setting [11].
Regarding `COc1ccc(C2C(C#N)=C(N)Oc3c2c(C)nn3-c2ccccc2)cc1` (configuration not stated), the T/C by setting is: under setting [6], 89 % of control and 92 % of control; under setting [7], 99 % of control and 96 % of control; under setting [8], 90 % of control and 97 % of control.
Take `O=c1c2ccccc2ncn1CC1(O)CC2NCCCC2O1` (configuration not stated): the T/C is 115 % of control (dose: 2.0 mg/kg/injection, schedule: Q01DX009 (ip), vehicle: distilled water + Tween-80); 117 % of control (dose: 4.0 mg/kg/injection, schedule: Q01DX009 (ip), vehicle: distilled water + Tween-80); 116 % of control (dose: 5.0 mg/kg/injection, schedule: Q01DX009 (ip), vehicle: Klucel (hydroxypropylcellulose) (HPC)); 102 % of control (dose: 8.0 mg/kg/injection, schedule: Q01DX009 (ip), vehicle: distilled water + Tween-80); 107 % of control (dose: 10.0 mg/kg/injection, schedule: Q01DX009 (ip), vehicle: Klucel (hydroxypropylcellulose) (HPC)); 117 % of control (dose: 16.0 mg/kg/injection, schedule: Q01DX009 (ip), vehicle: distilled water + Tween-80). Also, the T/C (dose: 20.0 mg/kg/injection, schedule: Q01DX009 (ip), vehicle: Klucel (hydroxypropylcellulose) (HPC)) was 98 % of control.
As for `OCC1OC(n2cnc3c(I)ncnc32)C(O)C1O` (configuration not stated), the T/C is, setting by setting: under setting [3], 100 % of control; under setting [4], 103 % of control; under setting [5], 101 % of control.
Regarding `O=c1[nH]c2ccccc2c(=O)n1-c1ccco1`, the T/C runs as follows: (dose: 100.0 mg/kg/injection, schedule: Q04DX002 (ip), vehicle: saline) 100 % of control; (dose: 200.0 mg/kg/injection, schedule: Q04DX002 (ip), vehicle: saline) 102 % of control; (dose: 400.0 mg/kg/injection, schedule: Q04DX002 (ip), vehicle: saline) 101 % of control.
Turning to `CC(=O)O[C@H]1CC[C@]2(C)C3CC[C@]4(C)C([C@H](C)CCCC(C)C)CCC4[C@]3(C#N)n3c(=O)n(-c4ccccc4)c(=O)n3[C@]2(C#N)C1` (some centres not stated), the T/C was 96 % of control under setting [9], 93 % of control under setting [10] and 91 % of control under setting [11].
With `C=C1C(=O)[C@@]23CC1C(O)[C@@H](OC(C)=O)[C@@H]2C1(C)C(OC(C)=O)C[C@@H](OC(C)=O)C(C)(C)[C@@H]1C[C@H]3OC(C)=O` (some centres not stated), the T/C (dose: 25.0 mg/kg/injection, schedule: Q01DX005 (ip), vehicle: Klucel (hydroxypropylcellulose) (HPC)) was 102 % of control and the T/C under setting [15] was 117 % of control.
On to `CC(SC(C)C(=O)N/N=C/c1c[nH]c2ccccc12)C(=O)N/N=C\c1c[nH]c2ccccc12` (configuration not stated), for which the T/C reads like this: under setting [3], 92 % of control; under setting [4], 93 % of control; under setting [5], 93 % of control.
In the case of `C#CCn1cnc2c(N)ncnc21`, the T/C by setting is: under setting [15], 97 % of control; (dose: 100.0 mg/kg/injection, schedule: Q01DX005 (ip), vehicle: Klucel (hydroxypropylcellulose) (HPC)) 93 % of control.
As to `Cc1ccc(S(=O)(=O)N/N=C/c2c(Cl)[nH]c3cc(C)c(O)cc23)cc1`, the T/C is 100 % of control (dose: 25.0 mg/kg/injection, schedule: Q01DX001 (ip), vehicle: Klucel (hydroxypropylcellulose) (HPC)); 105 % of control (dose: 50.0 mg/kg/injection, schedule: Q01DX001 (ip), vehicle: Klucel (hydroxypropylcellulose) (HPC)); 103 % of control and 91 % of control under setting [12]; 103 % of control under setting [13]; 91 % of control under setting [14].
